ChEMBL document CHEMBL1139325, “Discovery of targeting ligands for breast cancer cells using the one-bead one-compound combinatorial method” (J Med Chem, 2009)
Activity calls are given as the source filed them. No cut-off for these calls is given here.

Tests used:
Type in all cases: cell-based
[1] = molecular target: Integrin alpha-1 (Homo sapiens) (UniProt P56199); assay: Binding affinity to integrin alpha1 expressed in human K562 cells at 1 uM for 30 mins by flow cytometry
[2] = molecular target: Integrin alpha-2 (Homo sapiens) (UniProt P17301); assay: Binding affinity to integrin alpha2 expressed in human K562 cells at 1 uM for 30 mins by flow cytometry
Integrin alpha-2 (Homo sapiens), sequence (P17301 whole entry): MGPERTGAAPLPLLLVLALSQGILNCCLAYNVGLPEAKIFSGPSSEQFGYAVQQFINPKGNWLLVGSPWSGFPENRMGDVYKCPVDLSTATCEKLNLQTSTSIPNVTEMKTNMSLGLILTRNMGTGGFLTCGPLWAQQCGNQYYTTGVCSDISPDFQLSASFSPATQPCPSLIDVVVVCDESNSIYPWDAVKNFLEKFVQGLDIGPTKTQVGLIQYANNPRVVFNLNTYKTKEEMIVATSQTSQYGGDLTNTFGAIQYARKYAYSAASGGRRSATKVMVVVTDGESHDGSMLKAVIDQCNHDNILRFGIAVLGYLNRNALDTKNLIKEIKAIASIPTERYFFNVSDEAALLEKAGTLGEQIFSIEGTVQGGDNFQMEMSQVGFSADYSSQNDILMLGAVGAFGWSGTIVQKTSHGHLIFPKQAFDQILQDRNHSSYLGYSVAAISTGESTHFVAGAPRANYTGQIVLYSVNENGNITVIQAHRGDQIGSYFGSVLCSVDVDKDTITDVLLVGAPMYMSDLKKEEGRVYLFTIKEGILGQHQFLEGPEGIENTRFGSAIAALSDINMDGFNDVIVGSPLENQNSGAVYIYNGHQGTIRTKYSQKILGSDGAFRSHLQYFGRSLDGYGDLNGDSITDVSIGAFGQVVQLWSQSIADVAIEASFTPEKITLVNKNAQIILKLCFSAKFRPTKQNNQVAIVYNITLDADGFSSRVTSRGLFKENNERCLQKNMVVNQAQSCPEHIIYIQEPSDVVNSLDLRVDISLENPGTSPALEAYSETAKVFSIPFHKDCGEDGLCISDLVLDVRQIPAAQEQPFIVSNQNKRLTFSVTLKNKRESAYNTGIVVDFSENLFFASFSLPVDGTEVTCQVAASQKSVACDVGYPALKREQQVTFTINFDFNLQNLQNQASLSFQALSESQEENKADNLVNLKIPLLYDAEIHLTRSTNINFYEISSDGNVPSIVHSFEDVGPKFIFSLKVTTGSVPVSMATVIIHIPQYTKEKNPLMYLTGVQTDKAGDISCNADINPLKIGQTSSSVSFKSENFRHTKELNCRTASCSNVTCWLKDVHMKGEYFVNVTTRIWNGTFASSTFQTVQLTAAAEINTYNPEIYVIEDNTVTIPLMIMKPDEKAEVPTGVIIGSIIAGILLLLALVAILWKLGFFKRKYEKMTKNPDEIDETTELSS

[3] = molecular target: Integrin alpha-4 (Homo sapiens) (UniProt P13612); assay: Binding affinity to integrin alpha4 expressed in human K562 cells at 1 uM for 30 mins by flow cytometry
Integrin alpha-4 (Homo sapiens), sequence (P13612 whole entry): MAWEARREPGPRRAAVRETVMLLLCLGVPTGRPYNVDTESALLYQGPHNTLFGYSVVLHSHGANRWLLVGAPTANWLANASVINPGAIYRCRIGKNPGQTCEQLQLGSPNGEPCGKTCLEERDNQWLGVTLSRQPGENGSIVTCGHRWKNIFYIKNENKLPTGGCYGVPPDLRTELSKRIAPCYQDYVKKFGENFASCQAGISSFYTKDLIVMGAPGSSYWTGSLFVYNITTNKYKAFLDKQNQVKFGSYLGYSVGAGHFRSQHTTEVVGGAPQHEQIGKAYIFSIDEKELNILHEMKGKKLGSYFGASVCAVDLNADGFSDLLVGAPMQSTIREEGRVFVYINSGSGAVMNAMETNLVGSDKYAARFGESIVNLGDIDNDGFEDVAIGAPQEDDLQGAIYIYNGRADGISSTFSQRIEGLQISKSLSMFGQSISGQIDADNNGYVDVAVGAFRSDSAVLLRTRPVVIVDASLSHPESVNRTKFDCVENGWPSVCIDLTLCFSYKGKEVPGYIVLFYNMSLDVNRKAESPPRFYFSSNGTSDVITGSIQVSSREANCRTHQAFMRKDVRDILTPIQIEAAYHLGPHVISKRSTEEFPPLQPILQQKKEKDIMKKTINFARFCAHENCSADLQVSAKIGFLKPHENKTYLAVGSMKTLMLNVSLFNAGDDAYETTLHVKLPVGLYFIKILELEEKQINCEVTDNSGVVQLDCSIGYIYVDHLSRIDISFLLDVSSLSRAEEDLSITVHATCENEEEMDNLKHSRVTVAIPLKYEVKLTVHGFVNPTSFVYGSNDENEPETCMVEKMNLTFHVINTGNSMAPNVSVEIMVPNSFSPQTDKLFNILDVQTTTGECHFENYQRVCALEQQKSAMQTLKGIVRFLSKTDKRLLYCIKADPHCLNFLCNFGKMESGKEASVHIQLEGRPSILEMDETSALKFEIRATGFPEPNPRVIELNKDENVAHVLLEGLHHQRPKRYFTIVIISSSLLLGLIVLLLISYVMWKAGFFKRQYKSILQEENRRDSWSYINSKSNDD

[4] = molecular target: T1, Integrin alpha-6 (Homo sapiens) (UniProt P23229); assay: Binding affinity to integrin alpha6 expressed in human K562 cells at 1 uM for 30 mins by flow cytometry
T1 sequence (whole entry): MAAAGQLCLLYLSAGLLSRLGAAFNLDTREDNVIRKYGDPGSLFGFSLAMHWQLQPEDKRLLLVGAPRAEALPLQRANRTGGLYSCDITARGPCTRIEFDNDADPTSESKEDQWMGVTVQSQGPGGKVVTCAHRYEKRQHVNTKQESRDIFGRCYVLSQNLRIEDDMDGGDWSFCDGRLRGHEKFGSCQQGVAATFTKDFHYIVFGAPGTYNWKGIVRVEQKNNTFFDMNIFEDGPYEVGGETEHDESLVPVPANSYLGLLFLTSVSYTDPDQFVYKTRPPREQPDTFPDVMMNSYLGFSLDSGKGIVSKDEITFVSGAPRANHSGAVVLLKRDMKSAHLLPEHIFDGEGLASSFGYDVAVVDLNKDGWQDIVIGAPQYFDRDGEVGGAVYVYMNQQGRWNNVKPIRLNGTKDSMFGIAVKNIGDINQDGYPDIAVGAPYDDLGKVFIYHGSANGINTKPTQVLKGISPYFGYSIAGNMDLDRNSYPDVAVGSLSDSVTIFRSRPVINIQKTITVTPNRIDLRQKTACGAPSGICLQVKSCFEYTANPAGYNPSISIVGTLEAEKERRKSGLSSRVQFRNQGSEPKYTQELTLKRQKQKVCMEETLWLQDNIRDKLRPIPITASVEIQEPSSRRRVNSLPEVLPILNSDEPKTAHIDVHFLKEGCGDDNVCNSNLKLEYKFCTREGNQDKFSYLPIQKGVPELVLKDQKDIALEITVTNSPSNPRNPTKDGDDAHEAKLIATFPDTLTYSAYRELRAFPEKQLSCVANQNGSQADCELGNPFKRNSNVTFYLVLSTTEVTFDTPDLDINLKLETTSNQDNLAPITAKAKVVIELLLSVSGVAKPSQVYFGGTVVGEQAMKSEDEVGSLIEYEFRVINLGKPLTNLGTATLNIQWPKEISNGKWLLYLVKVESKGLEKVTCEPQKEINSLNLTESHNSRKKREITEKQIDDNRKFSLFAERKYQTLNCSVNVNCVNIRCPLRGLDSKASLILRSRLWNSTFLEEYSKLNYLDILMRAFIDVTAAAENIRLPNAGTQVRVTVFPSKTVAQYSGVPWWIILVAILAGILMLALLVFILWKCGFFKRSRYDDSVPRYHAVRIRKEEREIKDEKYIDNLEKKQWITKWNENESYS

[5] = molecular target: T2, Integrin alpha-9 (Homo sapiens) (UniProt Q13797); assay: Binding affinity to integrin alpha9 expressed in human K562 cells at 1 uM for 30 mins by flow cytometry
T2 sequence (whole entry): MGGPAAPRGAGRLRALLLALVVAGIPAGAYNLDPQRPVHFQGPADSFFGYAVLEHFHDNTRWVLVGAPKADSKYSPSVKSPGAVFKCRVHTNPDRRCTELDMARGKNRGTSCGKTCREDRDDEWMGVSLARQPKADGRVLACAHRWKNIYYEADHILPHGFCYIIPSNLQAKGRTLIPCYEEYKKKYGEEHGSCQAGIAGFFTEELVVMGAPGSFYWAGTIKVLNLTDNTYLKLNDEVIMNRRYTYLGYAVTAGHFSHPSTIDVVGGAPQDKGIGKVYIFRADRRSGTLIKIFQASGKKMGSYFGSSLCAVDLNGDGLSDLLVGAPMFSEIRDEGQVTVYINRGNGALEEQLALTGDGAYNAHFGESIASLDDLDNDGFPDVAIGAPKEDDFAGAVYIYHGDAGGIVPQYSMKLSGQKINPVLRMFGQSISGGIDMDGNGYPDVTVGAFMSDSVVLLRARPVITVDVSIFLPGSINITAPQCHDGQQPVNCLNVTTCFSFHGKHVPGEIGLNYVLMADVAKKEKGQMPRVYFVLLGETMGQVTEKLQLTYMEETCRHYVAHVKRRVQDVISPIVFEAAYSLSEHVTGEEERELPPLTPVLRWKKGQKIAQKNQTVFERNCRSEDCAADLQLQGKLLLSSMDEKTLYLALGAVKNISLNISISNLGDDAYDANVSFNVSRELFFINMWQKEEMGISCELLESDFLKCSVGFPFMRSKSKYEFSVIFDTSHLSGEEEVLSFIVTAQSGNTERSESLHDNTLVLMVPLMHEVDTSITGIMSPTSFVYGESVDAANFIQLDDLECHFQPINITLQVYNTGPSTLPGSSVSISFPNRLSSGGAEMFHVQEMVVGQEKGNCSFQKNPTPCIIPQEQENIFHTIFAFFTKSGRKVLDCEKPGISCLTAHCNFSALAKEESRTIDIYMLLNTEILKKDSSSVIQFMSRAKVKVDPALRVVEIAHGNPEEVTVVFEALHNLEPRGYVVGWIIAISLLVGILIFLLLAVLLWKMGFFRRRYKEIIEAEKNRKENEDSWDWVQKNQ

[6] = molecular target: Integrin alpha-V/beta-3 (Homo sapiens) (UniProt P05106+P06756); assay: Binding affinity to integrin alphaVbeta3 expressed in human K562 cells at 1 uM for 30 mins by flow cytometry
[7] = system: K562; assay: Decrease in binding affinity to integrin alpha3 D15A mutant expressed in human K562 cells by flow cytometry
[8] = system: K562; assay: Decrease in binding affinity to integrin alpha3 T162A mutant expressed in human K562 cells by flow cytometry
[9] = system: K562; assay: Decrease in binding affinity to integrin alpha3 T162F mutant expressed in human K562 cells by flow cytometry
[10] = system: K562; assay: Decrease in binding affinity to integrin alpha3 G163A mutant expressed in human K562 cells by flow cytometry
[11] = system: K562; assay: Decrease in binding affinity to integrin alpha3 M164A mutant expressed in human K562 cells by flow cytometry
[12] = system: K562; assay: Decrease in binding affinity to integrin alpha3 Y186A mutant expressed in human K562 cells by flow cytometry
[13] = molecular target: Integrin alpha-5 (Homo sapiens) (UniProt P08648); assay: Binding affinity to integrin alpha5 in human K562 cells at 1 uM for 30 mins by flow cytometry
Integrin alpha-5 (Homo sapiens), sequence (P08648 42-894 limits assumed): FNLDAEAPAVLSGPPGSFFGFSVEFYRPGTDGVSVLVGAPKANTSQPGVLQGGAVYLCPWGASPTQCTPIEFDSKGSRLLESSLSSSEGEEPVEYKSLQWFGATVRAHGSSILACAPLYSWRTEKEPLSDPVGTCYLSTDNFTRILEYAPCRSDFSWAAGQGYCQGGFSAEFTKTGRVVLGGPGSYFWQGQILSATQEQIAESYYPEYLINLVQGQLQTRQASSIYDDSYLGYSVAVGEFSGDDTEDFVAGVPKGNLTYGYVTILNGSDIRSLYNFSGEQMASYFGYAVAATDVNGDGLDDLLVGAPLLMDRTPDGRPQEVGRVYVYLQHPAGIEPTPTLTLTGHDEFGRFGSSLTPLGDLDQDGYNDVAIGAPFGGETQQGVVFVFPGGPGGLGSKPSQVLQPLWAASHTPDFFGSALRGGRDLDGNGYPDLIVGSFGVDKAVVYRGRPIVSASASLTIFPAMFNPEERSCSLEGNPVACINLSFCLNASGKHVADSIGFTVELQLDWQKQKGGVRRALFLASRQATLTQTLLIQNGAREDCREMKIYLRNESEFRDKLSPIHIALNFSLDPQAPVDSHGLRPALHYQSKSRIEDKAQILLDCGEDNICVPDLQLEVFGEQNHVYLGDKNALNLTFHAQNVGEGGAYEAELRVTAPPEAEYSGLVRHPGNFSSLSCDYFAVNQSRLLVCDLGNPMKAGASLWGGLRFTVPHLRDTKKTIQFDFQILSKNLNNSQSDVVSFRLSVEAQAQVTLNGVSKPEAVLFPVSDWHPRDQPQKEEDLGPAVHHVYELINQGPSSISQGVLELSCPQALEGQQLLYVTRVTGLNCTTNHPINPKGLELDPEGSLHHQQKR
Integrin alpha-5 (Homo sapiens), sequence (P08648 895-1049 limits assumed): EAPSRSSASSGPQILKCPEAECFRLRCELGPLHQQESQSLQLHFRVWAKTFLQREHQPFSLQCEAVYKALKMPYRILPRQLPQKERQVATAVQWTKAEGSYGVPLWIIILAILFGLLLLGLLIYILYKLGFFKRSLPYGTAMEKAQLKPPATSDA

Integrin alpha-1 (Homo sapiens), sequence (P56199 whole entry): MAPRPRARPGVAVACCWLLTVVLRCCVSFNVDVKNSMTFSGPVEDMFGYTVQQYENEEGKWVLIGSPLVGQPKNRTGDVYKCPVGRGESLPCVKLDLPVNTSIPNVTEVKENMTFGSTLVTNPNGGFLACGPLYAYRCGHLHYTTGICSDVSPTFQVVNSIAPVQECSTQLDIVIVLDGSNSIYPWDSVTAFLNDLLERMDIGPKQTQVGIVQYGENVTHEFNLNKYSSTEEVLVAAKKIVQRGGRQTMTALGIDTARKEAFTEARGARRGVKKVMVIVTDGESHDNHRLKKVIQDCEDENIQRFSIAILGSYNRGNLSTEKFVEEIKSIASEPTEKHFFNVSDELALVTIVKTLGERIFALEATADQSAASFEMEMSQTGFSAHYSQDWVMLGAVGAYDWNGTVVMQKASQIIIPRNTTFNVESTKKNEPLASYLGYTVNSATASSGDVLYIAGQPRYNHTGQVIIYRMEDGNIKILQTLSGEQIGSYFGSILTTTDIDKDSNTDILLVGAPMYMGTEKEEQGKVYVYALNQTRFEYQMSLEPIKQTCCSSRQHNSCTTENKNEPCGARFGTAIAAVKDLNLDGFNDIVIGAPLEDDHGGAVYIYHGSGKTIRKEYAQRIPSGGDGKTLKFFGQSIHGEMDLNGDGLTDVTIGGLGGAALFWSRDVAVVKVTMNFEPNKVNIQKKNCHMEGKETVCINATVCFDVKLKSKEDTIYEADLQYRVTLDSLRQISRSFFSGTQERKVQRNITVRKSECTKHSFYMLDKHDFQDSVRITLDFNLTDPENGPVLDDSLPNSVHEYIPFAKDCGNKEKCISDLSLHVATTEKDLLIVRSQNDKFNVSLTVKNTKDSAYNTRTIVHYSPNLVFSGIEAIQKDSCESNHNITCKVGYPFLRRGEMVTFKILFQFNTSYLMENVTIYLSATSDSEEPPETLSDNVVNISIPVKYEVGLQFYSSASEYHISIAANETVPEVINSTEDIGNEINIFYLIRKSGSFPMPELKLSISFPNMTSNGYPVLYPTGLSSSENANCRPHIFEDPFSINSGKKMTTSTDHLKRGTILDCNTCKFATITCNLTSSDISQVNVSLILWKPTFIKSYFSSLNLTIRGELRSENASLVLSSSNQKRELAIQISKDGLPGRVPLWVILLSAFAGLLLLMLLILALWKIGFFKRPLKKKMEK

- Activity [1]: inactive
- Activity [2]: inactive
- Activity [3]: inactive
- Activity [4]: inactive
- Activity [5]: inactive
- Activity [6]: inactive
- Activity [13]: inactive
Structure (SMILES): CC(C)C[C@@H]1NC(=O)CNC(=O)[C@@H](CC(=O)O)NC(=O)[C@@H](N)CSSC[C@@H](C(N)=O)NC(=O)[C@H](CC(N)=O)NC(=O)[C@@H]2C[C@@H](O)CN2C(=O)CNC1=O
- Activity [7]: inactive
- Activity [8]: inactive
- Activity [9]: inactive
- Activity [10]: inactive
- Activity [11]: inactive
- Activity [12]: inactive
